Assay results from ChEMBL document CHEMBL1201862, “PubChem BioAssay data set” (2004).
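Exposure lasted 48 hours, with cells grown in 96-well plates and compounds tested at five concentrations. At the GI50, growth is halved.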 Calls of active or inactive are those of the source. Rule as the data show it: active = GI50 up to about 1.1 µM and inactive = higher.

Legend:
Assay in all cases: NCI-60 cell line screen, 48 h
HT-29 = system: HT-29
786-0 = system: 786-0
MOLT-4 = system: MOLT-4
A498 = system: A498
Malme-3M = system: Malme-3M
MDA-N = system: MDA-N
SF-295 = system: SF-295
MDA-MB-231 = system: MDA-MB-231
NCI-H23 = system: NCI-H23
SK-MEL-2 = system: SK-MEL-2
OVCAR-3 = system: OVCAR-3
DU-145 = system: DU-145
T47D = system: T47D
SR = system: SR
LOX IMVI = system: LOX IMVI
RXF 393 = system: RXF 393
UACC-62 = system: UACC-62
SK-OV-3 = system: SK-OV-3
HOP-62 = system: HOP-62

SMILES | GI50 (HT-29) | GI50 (786-0) | GI50 (MOLT-4) | GI50 (A498) | GI50 (Malme-3M) | GI50 (MDA-N) | GI50 (SF-295) | GI50 (MDA-MB-231) | GI50 (NCI-H23) | GI50 (SK-MEL-2) | GI50 (OVCAR-3) | GI50 (DU-145) | GI50 (T47D) | GI50 (SR) | GI50 (LOX IMVI) | GI50 (RXF 393) | GI50 (UACC-62) | GI50 (SK-OV-3) | GI50 (HOP-62)
CN(C)CCOc1ccc(-c2c(Oc3ccccc3)c(=O)oc3ccccc23)cc1 | 12.5 µM (inactive) | 8.39 µM (inactive) | 4.13 µM (inactive) | 13.4 µM (inactive) | 12.2 µM (inactive) | 2.19 µM (inactive) | 4.42 µM (inactive) | 4.93 µM (inactive) | 14.1 µM (inactive) | 13.4 µM (inactive) | 12.4 µM (inactive) | 13.8 µM (inactive) | 12.7 µM (inactive) | 2.83 µM (inactive) | 13.1 µM (inactive) | 3.08 µM (inactive) | 13.3 µM (inactive) |  | 
C=C(C)c1nc(C#N)c(N)o1 | > 100 µM (inactive) | > 100 µM (inactive) | > 100 µM (inactive) |  | > 100 µM (inactive) | > 100 µM (inactive) | > 100 µM (inactive) | > 100 µM (inactive) | > 100 µM (inactive) | > 100 µM (inactive) | > 100 µM (inactive) | > 100 µM (inactive) | > 100 µM (inactive) | > 100 µM (inactive) | > 100 µM (inactive) | > 100 µM (inactive) |  | > 100 µM (inactive) | > 100 µM (inactive)
CC(=O)C(N1CCCCC1)C(O)(C(F)(F)F)C(F)(F)F (centres undefined) | > 100 µM (inactive) | > 100 µM (inactive) | 24 µM (inactive) | > 100 µM (inactive) | > 100 µM (inactive) | > 100 µM (inactive) | > 100 µM (inactive) | > 100 µM (inactive) | 39.5 µM (inactive) |  | 42.4 µM (inactive) | > 100 µM (inactive) | 43.9 µM (inactive) | > 100 µM (inactive) | > 100 µM (inactive) | 38.5 µM (inactive) | 86.9 µM (inactive) | > 100 µM (inactive) | 
CC1C[C@]2(C)C(=O)Nc3ccccc3[C@@H]2Nc2ccccc21 (some centres undefined) | 14.7 µM (inactive) | 22 µM (inactive) | 17.4 µM (inactive) | 20.5 µM (inactive) | 23.3 µM (inactive) | 28.8 µM (inactive) | 31.6 µM (inactive) | 16.3 µM (inactive) | 19.5 µM (inactive) | 20.1 µM (inactive) | 17.8 µM (inactive) | 27.7 µM (inactive) | 42.5 µM (inactive) | 16.2 µM (inactive) | 16.3 µM (inactive) | 24.8 µM (inactive) | 15.1 µM (inactive) |  | 23.7 µM (inactive)
CCN(CC)N1C(=O)[N-][N+](CC)(CC)C1=O | > 100 µM (inactive) | > 100 µM (inactive) | > 100 µM (inactive) | > 100 µM (inactive) | > 100 µM (inactive) | > 100 µM (inactive) | > 100 µM (inactive) | > 100 µM (inactive) | > 100 µM (inactive) | > 100 µM (inactive) | > 100 µM (inactive) | > 100 µM (inactive) | > 100 µM (inactive) | > 100 µM (inactive) | > 100 µM (inactive) |  | > 100 µM (inactive) | > 100 µM (inactive) | > 100 µM (inactive)
c1ccc(-c2nc(-c3ccccc3SSc3ccccc3-c3nc(-c4ccccc4)nn3-c3ccccc3)n(-c3ccccc3)n2)cc1 |  | > 100 µM (inactive) | > 100 µM (inactive) | > 100 µM (inactive) | > 100 µM (inactive) | > 100 µM (inactive) | > 100 µM (inactive) | > 100 µM (inactive) | > 100 µM (inactive) |  | > 100 µM (inactive) | > 100 µM (inactive) | > 100 µM (inactive) | > 100 µM (inactive) | > 100 µM (inactive) | > 100 µM (inactive) | > 100 µM (inactive) | > 100 µM (inactive) | > 10 µM (inactive)
O=C1N[C@H]2c3c(Cl)sc(Cl)c3[C@@H](O)[C@H]2O1 | > 100 µM (inactive) | > 100 µM (inactive) | > 100 µM (inactive) | > 100 µM (inactive) | > 100 µM (inactive) | > 100 µM (inactive) |  | > 100 µM (inactive) |  | > 100 µM (inactive) | > 100 µM (inactive) | > 100 µM (inactive) | > 100 µM (inactive) | > 100 µM (inactive) |  | > 100 µM (inactive) | > 100 µM (inactive) | > 100 µM (inactive) | > 100 µM (inactive)
CSC1=NN(c2ccccc2)C(=O)C1=C(SC)SC | 19.1 µM (inactive) | 24.2 µM (inactive) | 26 µM (inactive) | 13.3 µM (inactive) | 11.2 µM (inactive) | 30.7 µM (inactive) |  | 14.3 µM (inactive) | 19.1 µM (inactive) | 22.8 µM (inactive) | 42.6 µM (inactive) | 29.9 µM (inactive) | 18.2 µM (inactive) | 24 µM (inactive) | 20.2 µM (inactive) | 13.9 µM (inactive) | 21.2 µM (inactive) | 31.1 µM (inactive) | 
O=[N+]([O-])/C(C(Cl)=C(Cl)Cl)=C(/Nc1ccccc1)Sc1ccccc1 | 22.6 µM (inactive) | 21.7 µM (inactive) | 19.8 µM (inactive) | 20.8 µM (inactive) | 15.9 µM (inactive) | 24.9 µM (inactive) | 16.5 µM (inactive) | 15.7 µM (inactive) | 18.7 µM (inactive) |  | 15.7 µM (inactive) | 21.1 µM (inactive) | 19.7 µM (inactive) | 20.7 µM (inactive) | 15.7 µM (inactive) | 19.8 µM (inactive) | 19.9 µM (inactive) | 20.1 µM (inactive) | 19.5 µM (inactive)
COC(=O)C1(Cc2ccc3c(c2)CCC3)Cc2cc3c(cc2C1)CCC3 | 22.5 µM (inactive) | 51.4 µM (inactive) | 29.8 µM (inactive) | 35.2 µM (inactive) |  | 40.6 µM (inactive) | 33.3 µM (inactive) | 22.9 µM (inactive) | 27.3 µM (inactive) | 19.9 µM (inactive) | 45.6 µM (inactive) | 71.4 µM (inactive) | 21.4 µM (inactive) | 78.7 µM (inactive) | 18.7 µM (inactive) | 23.9 µM (inactive) | 71.3 µM (inactive) | > 100 µM (inactive) | > 100 µM (inactive)
O=C1Nc2nccnc2C(=O)N2CCC[C@@H]12 | > 100 µM (inactive) | > 100 µM (inactive) | > 100 µM (inactive) |  | > 100 µM (inactive) | > 100 µM (inactive) | > 100 µM (inactive) | > 100 µM (inactive) | > 100 µM (inactive) | > 100 µM (inactive) | > 100 µM (inactive) | > 100 µM (inactive) | > 100 µM (inactive) | > 100 µM (inactive) | > 100 µM (inactive) | > 100 µM (inactive) | > 100 µM (inactive) | > 100 µM (inactive) | > 100 µM (inactive)
Cc1ccc([S+]([O-])/C=C(\NC(=O)OCc2ccccc2)C(F)(F)F)cc1 (centres undefined) | 32.1 µM (inactive) | 53.3 µM (inactive) | 25.2 µM (inactive) |  | 35.2 µM (inactive) | 38.6 µM (inactive) | 39.8 µM (inactive) | 55.2 µM (inactive) | 33.4 µM (inactive) | 32.4 µM (inactive) | 43.6 µM (inactive) | 77.3 µM (inactive) | 39.7 µM (inactive) | 30.4 µM (inactive) | 32.1 µM (inactive) | 35.5 µM (inactive) | 35.2 µM (inactive) | > 100 µM (inactive) | 
COC1OC(Cn2c(C)nc(Br)c2Br)C(O)C(O)C1O (centres undefined) | > 100 µM (inactive) | > 100 µM (inactive) | > 100 µM (inactive) | > 100 µM (inactive) | > 100 µM (inactive) | > 100 µM (inactive) | > 100 µM (inactive) | > 100 µM (inactive) | > 100 µM (inactive) | > 100 µM (inactive) | > 100 µM (inactive) | > 100 µM (inactive) | > 100 µM (inactive) | > 10 µM (inactive) |  | > 100 µM (inactive) | > 100 µM (inactive) | > 100 µM (inactive) | > 100 µM (inactive)
Clc1ccc(Cc2nc3ccccc3nc2-c2cccc(Br)c2)cc1 | 2.5 µM (inactive) | 1.75 µM (inactive) | 2.22 µM (inactive) |  | 4.45 µM (inactive) | 1.97 µM (inactive) | 16.1 µM (inactive) | 3.6 µM (inactive) | 13.5 µM (inactive) | 4.67 µM (inactive) | 2.33 µM (inactive) | 10.7 µM (inactive) | 1.87 µM (inactive) | 1.75 µM (inactive) | 1.97 µM (inactive) | 2.47 µM (inactive) | 1.91 µM (inactive) | 16.8 µM (inactive) | 17.9 µM (inactive)
CC(C)(C)NC(=S)N/N=C/c1ccccn1 | < 0.0452 µM (active) | 0.0545 µM (active) | < 0.01 µM (active) | 2.73 µM (inactive) | 3.72 µM (inactive) | 1.58 µM (inactive) | 2.84 µM (inactive) | 0.223 µM (active) |  | 0.724 µM (active) | < 0.0155 µM (active) | 2.04 µM (inactive) | < 0.01 µM (active) | < 0.01 µM (active) |  | < 0.01 µM (active) | 0.578 µM (active) | 1.96 µM (inactive) | 0.396 µM (active)
CCc1nc(N)nc(N)c1-c1ccc(Cl)c(/N=C/N(C)C)c1 | 18.8 µM (inactive) | 22.8 µM (inactive) | 34.8 µM (inactive) | 86.9 µM (inactive) |  | 45.9 µM (inactive) | 41.1 µM (inactive) | 81.3 µM (inactive) | 28.6 µM (inactive) | > 100 µM (inactive) | 65.6 µM (inactive) | 81.1 µM (inactive) | 77.3 µM (inactive) | 31.1 µM (inactive) | 19.2 µM (inactive) | > 89.3 µM (inactive) | 35.8 µM (inactive) | > 100 µM (inactive) | 63.7 µM (inactive)
